We go through 9 compounds from US10336732B2, “1-heterocyclyl isochromanyl compounds and analogs for treating CNS disorders” (Sunovion Pharmaceuticals Inc., priority 2015, dated 2019).

Structures are written as SMILES.

This test concerns mice. Put plainly: Neuropharmacological assay (SmartCube), behavioral signature of compound-treated mice. It is filed as in vivo. The settings on record: i.p. 15 min before behavioral test, most efficacious dose(s) of 3 doses. In a few lines: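 Mice received compound i.p. in NMP/PEG/propylene glycol vehicle at 3 doses, 15 min before testing. Video-captured behavior was algorithmically compared with a reference-drug signature database.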

As to `N#Cc1ccc2c(c1)CCO[C@H]2[C@H]1CCCN1` [Compound I-45, (R)-1-((R)-pyrrolidin-2-yl)isochroman-6-carbonitrile], the “AD: ADHD (probability that behavioral signature matches class)” value (from here on “AD: ADHD”) was “+ (LOQ ≤ + <5%)”, the “AG: analgesic (probability that behavioral signature matches class)” value (shortened to “AG: analgesic”) is given as “++ (5% ≤ ++ <25%)”, the “AX: anxiolytic (probability that behavioral signature matches class)” value (“AX: anxiolytic” for short) is “+++ (25% ≤ +++ <50%)” and the “CE: cognitive enhancer (probability that behavioral signature matches class)” value (“CE: cognitive enhancer” for short) was “+ (LOQ ≤ + <5%)”. For the same compound, the “DP: anti-depressant (probability that behavioral signature matches class)” value (“DP: anti-depressant” for short) was “++ (5% ≤ ++ <25%)”, the “HA: hallucinogen (probability that behavioral signature matches class)” value (from here on “HA: hallucinogen”) is on record as “+ (LOQ ≤ + <5%)”, the “MS: mood stabilizer (probability that behavioral signature matches class)” value (shortened to “MS: mood stabilizer”) is “+ (LOQ ≤ + <5%)” and the “PS: anti-psychotic (probability that behavioral signature matches class)” value (shortened to “PS: anti-psychotic”) is recorded as “+ (LOQ ≤ + <5%)”. The “SD: sedative hypnotic (probability that behavioral signature matches class)” value (from here on “SD: sedative hypnotic”) is on record as “+ (LOQ ≤ + <5%)”, the “UN: uncharacterized CNS activity (probability that behavioral signature matches class)” value (“UN: uncharacterized CNS activity” below) is “+ (LOQ ≤ + <5%)” and the “XG: anxiogenic (probability that behavioral signature matches class)” value (from here on “XG: anxiogenic”) is given as “+ (LOQ ≤ + <5%)”.

In the case of `N#Cc1ccc2c(c1)CCO[C@@H]2[C@H]1CCCN1` [Compound I-46, (S)-1-((R)-pyrrolidin-2-yl)isochroman-6-carbonitrile], the “AD: ADHD” value is listed as “+ (LOQ ≤ + <5%)”, the “AG: analgesic” value is “++ (5% ≤ ++ <25%)”, the “AX: anxiolytic” value is given as “++ (5% ≤ ++ <25%)” and the “CE: cognitive enhancer” value was “++ (5% ≤ ++ <25%)”. Besides, the “DP: anti-depressant” value is listed as “++ (5% ≤ ++ <25%)”, the “HA: hallucinogen” value is recorded as “+ (LOQ ≤ + <5%)”, the “MS: mood stabilizer” value was “+ (LOQ ≤ + <5%)” and the “PS: anti-psychotic” value is “++++ (50% ≤ ++++)”. Moreover, the “SD: sedative hypnotic” value was “++ (5% ≤ ++ <25%)”, the “UN: uncharacterized CNS activity” value is “+ (LOQ ≤ + <5%)” and the “XG: anxiogenic” value was “+ (LOQ ≤ + <5%)”.

Take `COc1cccc2c1[C@H]([C@@H]1CCCN1)OCC2` [Compound I-47, (S)-2-((R)-8-methoxyisochroman-1-yl)pyrrolidine]: the “AD: ADHD” value is given as “+ (LOQ ≤ + <5%)”, the “AG: analgesic” value is “+ (LOQ ≤ + <5%)”, the “AX: anxiolytic” value is “++ (5% ≤ ++ <25%)” and the “CE: cognitive enhancer” value is listed as “+ (LOQ ≤ + <5%)”. The “DP: anti-depressant” value is recorded as “+ (LOQ ≤ + <5%)”, the “HA: hallucinogen” value is on record as “+ (LOQ ≤ + <5%)”, the “MS: mood stabilizer” value is listed as “+ (LOQ ≤ + <5%)” and the “PS: anti-psychotic” value is “+ (LOQ ≤ + <5%)”. Also, the “SD: sedative hypnotic” value is “+ (LOQ ≤ + <5%)”, the “UN: uncharacterized CNS activity” value is given as “+ (LOQ ≤ + <5%)” and the “XG: anxiogenic” value is “+ (LOQ ≤ + <5%)”.

`COc1cccc2c1[C@@H]([C@@H]1CCCN1)OCC2` [Compound I-48, (S)-2-((S)-8-methoxyisochroman-1-yl)pyrrolidine]: the “AD: ADHD” value is “+ (LOQ ≤ + <5%)”, the “AG: analgesic” value is “+++ (25% ≤ +++ <50%)”, the “AX: anxiolytic” value is listed as “++ (5% ≤ ++ <25%)” and the “CE: cognitive enhancer” value is reported as “++ (5% ≤ ++ <25%)”. Further, the “DP: anti-depressant” value was “++ (5% ≤ ++ <25%)”, the “HA: hallucinogen” value is on record as “+ (LOQ ≤ + <5%)”, the “MS: mood stabilizer” value is given as “+ (LOQ ≤ + <5%)” and the “PS: anti-psychotic” value is recorded as “++ (5% ≤ ++ <25%)”. In addition, the “SD: sedative hypnotic” value is listed as “+ (LOQ ≤ + <5%)”, the “UN: uncharacterized CNS activity” value is on record as “+ (LOQ ≤ + <5%)” and the “XG: anxiogenic” value is “+ (LOQ ≤ + <5%)”.

Consider `COc1cccc2c1[C@H]([C@H]1CCCN1)OCC2` [Compound I-49, (R)-2-((R)-8-methoxyisochroman-1-yl)pyrrolidine], for which the “AD: ADHD” value is “+ (LOQ ≤ + <5%)”, the “AG: analgesic” value is listed as “++ (5% ≤ ++ <25%)”, the “AX: anxiolytic” value was “++ (5% ≤ ++ <25%)” and the “CE: cognitive enhancer” value is “++ (5% ≤ ++ <25%)”. The “DP: anti-depressant” value is “++ (5% ≤ ++ <25%)”, the “HA: hallucinogen” value is listed as “+ (LOQ ≤ + <5%)”, the “MS: mood stabilizer” value is given as “++ (5% ≤ ++ <25%)” and the “PS: anti-psychotic” value was “++ (5% ≤ ++ <25%)”. In addition, the “SD: sedative hypnotic” value is on record as “++ (5% ≤ ++ <25%)”, the “UN: uncharacterized CNS activity” value is “++ (5% ≤ ++ <25%)” and the “XG: anxiogenic” value is reported as “+ (LOQ ≤ + <5%)”.

Turning to `COc1cccc2c1[C@@H]([C@H]1CCCN1)OCC2` [Compound I-50, (R)-2-((S)-8-methoxyisochroman-1-yl)pyrrolidine], the “AD: ADHD” value was “+ (LOQ ≤ + <5%)”, the “AG: analgesic” value is recorded as “++ (5% ≤ ++ <25%)”, the “AX: anxiolytic” value is recorded as “+++ (25% ≤ +++ <50%)” and the “CE: cognitive enhancer” value is given as “++ (5% ≤ ++ <25%)”. In addition, the “DP: anti-depressant” value was “++ (5% ≤ ++ <25%)”, the “HA: hallucinogen” value is given as “+ (LOQ ≤ + <5%)”, the “MS: mood stabilizer” value is on record as “+ (LOQ ≤ + <5%)” and the “PS: anti-psychotic” value is on record as “++ (5% ≤ ++ <25%)”. Also, the “SD: sedative hypnotic” value is “+ (LOQ ≤ + <5%)”, the “UN: uncharacterized CNS activity” value was “+++ (25% ≤ +++ <50%)” and the “XG: anxiogenic” value was “+ (LOQ ≤ + <5%)”.

In the case of `c1cc2c(c3c1CCO[C@@H]3[C@@H]1CCCN1)OCO2` [Compound I-51, (S)-2-((S)-7,9-dihydro-6H-[1,3]dioxolo[4,5-h]isochromen-9-yl)pyrrolidine], the “AD: ADHD” value is given as “+ (LOQ ≤ + <5%)”, the “AG: analgesic” value was “++ (5% ≤ ++ <25%)”, the “AX: anxiolytic” value is reported as “++ (5% ≤ ++ <25%)” and the “CE: cognitive enhancer” value is recorded as “+ (LOQ ≤ + <5%)”. In addition, the “DP: anti-depressant” value is recorded as “+ (LOQ ≤ + <5%)”, the “HA: hallucinogen” value is listed as “+ (LOQ ≤ + <5%)”, the “MS: mood stabilizer” value is reported as “+ (LOQ ≤ + <5%)” and the “PS: anti-psychotic” value is recorded as “+ (LOQ ≤ + <5%)”. Further, the “SD: sedative hypnotic” value was “+ (LOQ ≤ + <5%)”, the “UN: uncharacterized CNS activity” value is given as “++ (5% ≤ ++ <25%)” and the “XG: anxiogenic” value is reported as “+ (LOQ ≤ + <5%)”.

For `c1cc2c(c3c1CCO[C@H]3[C@@H]1CCCN1)OCO2` [Compound I-52, (S)-2-((R)-7,9-dihydro-6H-[1,3]dioxolo[4,5-h]isochromen-9-yl)pyrrolidine], the “AD: ADHD” value is listed as “+ (LOQ ≤ + <5%)”, the “AG: analgesic” value is “++ (5% ≤ ++ <25%)”, the “AX: anxiolytic” value is reported as “++++ (50% ≤ ++++)” and the “CE: cognitive enhancer” value is “++ (5% ≤ ++ <25%)”. For the same compound, the “DP: anti-depressant” value is reported as “++ (5% ≤ ++ <25%)”, the “HA: hallucinogen” value is listed as “+ (LOQ ≤ + <5%)”, the “MS: mood stabilizer” value is listed as “+ (LOQ ≤ + <5%)” and the “PS: anti-psychotic” value is “++ (5% ≤ ++ <25%)”. Moreover, the “SD: sedative hypnotic” value is on record as “+ (LOQ ≤ + <5%)”, the “UN: uncharacterized CNS activity” value is given as “+++ (25% ≤ +++ <50%)” and the “XG: anxiogenic” value was “+ (LOQ ≤ + <5%)”.

`c1c2c(cc3c1OCO3)[C@@H]([C@@H]1CCCN1)OCC2` [Compound I-53, (S)-2-((S)-7,8-dihydro-5H-[1,3]dioxolo[4,5-g]isochromen-5-yl)pyrrolidine]: the “AD: ADHD” value is given as “+ (LOQ ≤ + <5%)”, the “AG: analgesic” value is reported as “+ (LOQ ≤ + <5%)”, the “AX: anxiolytic” value was “+ (LOQ ≤ + <5%)” and the “CE: cognitive enhancer” value is given as “+ (LOQ ≤ + <5%)”. In addition, the “DP: anti-depressant” value was “+ (LOQ ≤ + <5%)”, the “HA: hallucinogen” value is on record as “+ (LOQ ≤ + <5%)”, the “MS: mood stabilizer” value is reported as “+ (LOQ ≤ + <5%)” and the “PS: anti-psychotic” value was “+ (LOQ ≤ + <5%)”. Moreover, the “SD: sedative hypnotic” value is given as “+ (LOQ ≤ + <5%)”, the “UN: uncharacterized CNS activity” value is recorded as “+ (LOQ ≤ + <5%)” and the “XG: anxiogenic” value is “+ (LOQ ≤ + <5%)”.
